Values joined by “and” are separate entries in the source; they are usually repeats but may differ in a detail not shown here. Equal entries are not always repeated. Where two headings read alike, the source gives them in different places.
What was measured:
R2 reporter = assay: R2 luciferase reporter (BIRC3/BIRC2 locus) stably transfected in A549 cells; assay type: cell-based, human; details: for EC50: Homo sapiens, A549, 6 h
Experimental: Data were assumed to be normally distributed and, unless otherwise indicated, are presented as means ± SD with scatterplots showing individual values. […] Multiple comparisons were made using one-way ANOVA with Tukey’s or Dunnett’s post hoc tests, as appropriate. Comparisons between 2 groups were performed by 2-tailed, paired Student’s t test. The number of independent experiments (N) is indicated in each graph and, being exploratory, sample sizes were not prespecified. […] Heat maps were generated using the R package “pheatmap.” Concentration-response relationships were fitted using the 4-parameter model that assumed symmetric variance or using the Gaddum-Schild model of competitive antagonism, as described previously.[43] Variance in pEC50, EMax, or pA2 are provided by Prism as mean ±SE, whereas all curves are plotted as means ±SD (but without scatterplots). Because all analyses were exploratory and were not designed to test prespecified statistical null hypotheses, stated P values should be viewed as being descriptive rather than as hypothesis testing.

R5 reporter = assay: R5 luciferase reporter stably transfected in A549 cells; assay type: cell-based, human; details: for EC50: Homo sapiens
Experimental: (§2) Data were assumed to be normally distributed and, unless otherwise indicated, are presented as means ± SD with scatterplots showing individual values. With the exception of pEC50 values, numerical values in tables and text are provided to one decimal place, or where appropriate 2 significant figures of accuracy. […] Multiple comparisons were made using one-way ANOVA with Tukey’s or Dunnett’s post hoc tests, as appropriate. Comparisons between 2 groups were performed by 2-tailed, paired Student’s t test. The number of independent experiments (N) is indicated in each graph and, being exploratory, sample sizes were not prespecified. […] GraphPad Prism software (version 11; Dotmatics) and/or the R package “ggplot2” was used for graph plotting and statistical analyses. Heat maps were generated using the R package “pheatmap.” Concentration-response relationships were fitted using the 4-parameter model that assumed symmetric variance or using the Gaddum-Schild model of competitive antagonism, as described previously.[43] Variance in pEC50, EMax, or pA2 are provided by Prism as mean ±SE, whereas all curves are plotted as means ±SD (but without scatterplots).

R7 reporter = assay: R7 luciferase reporter stably transfected in A549 cells; assay type: cell-based, human
Experimental: as §2

R3 reporter = assay: R3 luciferase reporter stably transfected in A549 cells; assay type: cell-based, human; details: IL-1β 1 ng/mL, 6 h (Fig. 3B,C)
Experimental: Data were assumed to be normally distributed and, unless otherwise indicated, are presented as means ± SD with scatterplots showing individual values. […] Multiple comparisons were made using one-way ANOVA with Tukey’s or Dunnett’s post hoc tests, as appropriate. Comparisons between 2 groups were performed by 2-tailed, paired Student’s t test. The number of independent experiments (N) is indicated in each graph and, being exploratory, sample sizes were not prespecified. […] GraphPad Prism software (version 11; Dotmatics) and/or the R package “ggplot2” was used for graph plotting and statistical analyses. Heat maps were generated using the R package “pheatmap.” Concentration-response relationships were fitted using the 4-parameter model that assumed symmetric variance or using the Gaddum-Schild model of competitive antagonism, as described previously.[43] Variance in pEC50, EMax, or pA2 are provided by Prism as mean ±SE, whereas all curves are plotted as means ±SD (but without scatterplots).

R8 reporter [1] = assay: R8 luciferase reporter stably transfected in A549 cells; details: for EC50: A549, read-out: pEC50, R8 reporter (converted), Schild experiments (Fig. 7D)
Experimental: as §2

R4 reporter = assay: R4 luciferase reporter stably transfected in A549 cells; assay type: cell-based, human
Experimental: as §2

[2] = system: RELA recruitment to CXCL8; assay: ChIP-qPCR of RELA recruitment to CXCL8 in A549 cells; assay type: cell-based, human; details: IL-1β 1 ng/mL, 1 hour
Experimental: After cell treatments, formaldehyde (PI28906, Thermo Fisher Scientific) was added to a final concentration of 1% for 10 minutes. […] Following cytoplasmic and then nuclear lysis, lysates were sonicated with 30 high-power bursts in a 30 seconds on-off cycle at 4 °C using a Bioruptor (Diagenode). Antibodies: GR, GR-356,[36] RELA (NF-κB p65, D14E12, #8242, Cell Signaling Technologies); RNA polymerase 2 (RNAP2) (Rpb1 NTD D8L4Y, #14958, Cell Signaling Technologies) used for ChIP were preincubated with protein G magnetic Dynabeads (10004D, Thermo Fisher Scientific) overnight at 4 °C and beads were washed as previously described. Nuclear lysates were then incubated with the antibody-coated beads overnight prior to extensive washing. Following reversal of crosslinks, DNA was purified with a ChIP DNA Clean & Concentrator kit (D5205, Zymo Research). Fast SYBR Green Master Mix (Thermo Fisher Scientific) was used in standard quantitative polymerase chain reaction (qPCR) reactions to detect DNA regions of interest. […] Relative occupancy at each region was calculated as ΔΔ threshold cycle (CT) after normalization to the geometric mean of the threshold cycle values for 3 negative control regions (Gene symbols: OLIG3, MYOD1, and MYOG).

R0 reporter = assay: R0 luciferase reporter stably transfected in A549 cells; assay type: cell-based, human; details: IL-1β 1 ng/mL, 6 h (Fig. 3B,C)
Experimental: as §2

BIRC3 mRNA = assay: qPCR of BIRC3 mRNA in A549 cells; assay type: cell-based, human
Experimental: (§1) Following treatments, total RNA was extracted and 500 ng used for cDNA synthesis according to standard procedures.[34] After 1:5 dilution, cDNA (2.5 μL) was analyzed by qPCR (StepOnePlus, Applied […] or QuantStudio3, Thermo Fisher Scientific) with Fast SYBR Green Master Mix (4385618, Thermo Fisher Scientific). Amplification conditions and primers specific for BIRC3, BIRC2, and glyceraldehyde-3-phosphate dehydrogenase mRNAs were as described.[9] In each case, relative cDNA concentrations were obtained from standard curves generated by serial dilution of a stimulated cDNA sample that was analyzed in parallel with the experimental samples. Primer specificity was assessed by melt curve analysis where a single peak in the change of fluorescence with temperature was taken to indicate specificity.

R8 reporter [3] = system: R8 reporter
Experimental: as §2

BIRC2 mRNA = assay: qPCR of BIRC2 mRNA in A549 cells; assay type: cell-based, human
Experimental: as §1

NF-κB reporter = system: NF-κB reporter; parameters: method as in PMID 17322026, PMID 37863662, PMID 38941070; details: read-out: EC50, inhibition of IL-1β-induced NF-κB reporter activity; cited from earlier work
[4] = R5 reporter, IL-1β, naïve, n.r. = no significant response
[5] = R8 reporter, IL-1β, naïve (Table 1), n.r. = no significant response
[6] = R8 reporter, IL-1β, naïve, budesonide series (Supplemental Table 1), n.r. = no significant response

## IL-1β: Recombinant human IL-1β (R&D Systems), proinflammatory cytokine
R2 reporter; R2 reporter, IL-1β + dexamethasone (1 μM), 6 h
  EMax (Fold ± SE): 3.8 ± 0.2 Fold
R2 reporter; R2 reporter, IL-1β at 1 ng/mL in the presence of dexamethasone (1 μM) (Fig. 3F)
  reporter activity, fold: 4.0 ± 1.1 fold
R2 reporter; R2 reporter, IL-1β concentration-response, naïve, n.r. = no significant response
  EMax (Fold ± SE): n.r.
R2 reporter; R2 reporter, IL-1β, naïve, n.r. = no significant response
  pEC50 (−log[g/ mL] ± SE): n.r.
R5 reporter; R5 reporter, IL-1β + dexamethasone (1 μM): inhibition of dexamethasone-induced activity, % of 1 μM dexamethasone
  EMax (% of 1 μM dexamethasone ± SE): 15.1% ± 3.1
R5 reporter; [4]
  EMax: n.r.
  pEC50 (−log[g/ mL] ± SE): n.r.
R7 reporter; IL-1β 1 ng/mL (Fig. 6A)
  reporter inducibility, fold: 2.3 fold
R7 reporter; IL-1β 1 ng/mL, 6 h (Fig. 5C)
  reporter inducibility, fold: 2.0 ± 0.9 fold
R7 reporter; dexamethasone 1 μM, IL-1β 1 ng/mL or both, 6 h (Fig. 3C)
  reporter activity, fold of no stimulation ± SD: 2.0 ± 0.7 fold and 2.0 fold
R3 reporter
  reporter activity, fold of no stimulation ± SD: 1.4 ± 0.3 fold
R8 reporter [1]; R8 reporter, IL-1β + Budesonide (300 nM)
  EMax (Fold ± SE): 9.3 Fold
R8 reporter [1]; R8 reporter, IL-1β + dexamethasone (1 μM), 6 h
  EMax (Fold ± SE): 16.5 ± 1.0 Fold
R8 reporter [1]; R8 reporter, IL-1β alone (Fig. 3I)
  reporter activity, fold: 1.2 ± 0.3 fold
R8 reporter [1]; [5]
  EMax (Fold ± SE): n.r.
  pEC50 (−log[g/ mL] ± SE): n.r.
R8 reporter [1]; [6]
  EMax (Fold ± SE): n.r.
  pEC50 (-log[g/ml] ±SE): n.r.
R8 reporter [1]; R8 reporter, dexamethasone 1 μM, IL-1β 1 ng/mL or both, 6 h (Fig. 3C)
  reporter activity, fold of no stimulation ± SD: 1.3 ± 0.7 fold
R4 reporter; R4 reporter, IL-1β + Budesonide (300 nM)
  EMax (Fold ± SE): 4.8 Fold
R4 reporter; R4 reporter, IL-1β + dexamethasone (1 μM), 6 h
  EMax (Fold ± SE): 4.3 ± 0.1 Fold
R4 reporter; R4 reporter, IL-1β, naïve, 6 h (Table 1)
  EMax (Fold ± SE): 3.5 ± 0.1 Fold
R4 reporter; R4 reporter, IL-1β, naïve, budesonide series (Supplemental Table 1)
  EMax (Fold ± SE): 3.6 Fold
R4 reporter; R4 reporter, dexamethasone 1 μM, IL-1β 1 ng/mL or both, 6 h (Fig. 3C)
  reporter activity, fold of no stimulation ± SD: 3.3 ± 1.9 fold
R4 reporter; R4 reporter, naïve cells, dexamethasone 1 μM, IL-1β 1 ng/mL or both, 6 h (Fig. 5C)
  reporter activity, fold of not stimulated: 2.8 ± 0.7 fold
[2]
  recruitment of RELA to CXCL8, fold: 48 ± 11 fold
R0 reporter
  reporter activity, fold of no stimulation ± SD: 1.6 ± 0.5 fold

## COc1c(Cl)cc2c([nH]c3cnccc32)c1NC(=O)c1cccnc1C.Cl.Cl [ML120B, N-(6-Chloro-7-methoxy-9H-pyrido[3,4-b]indol-8-yl)-2-methyl-3-pyridinecarboxamide dihydrochloride]
BIRC3 mRNA; Homo sapiens, A549, 2 h, IL-1β-induced BIRC3 mRNA, 2 h
  EC50: 2950 nM
BIRC3 mRNA; at 30 μM, IL-1β 2 h
  repression of IL-1β-induced BIRC3 mRNA: ~54%
R2 reporter
  reduction in reporter activity in the presence of IL-1β: 27.8%
  reduction in reporter activity induced by dexamethasone: 34.0%
R8 reporter [3]
  EC50: 10000 nM
BIRC2 mRNA; Homo sapiens, A549, 2 h
  EC50: 10500 nM
BIRC2 mRNA; concentration series, IL-1β 2 h (Fig. 6C)
  effect on IL-1β-induced BIRC2 mRNA expression: partial repressive effect
NF-κB reporter
  EC50: 8200 nM
R8 reporter [1]; Homo sapiens, A549, read-out: inhibition of IL-1β-plus-dexamethasone-induced R8 reporter activity
  inhibition at 30 µM: > 75%
R4 reporter; Homo sapiens, A549, read-out: EC50, inhibition of IL-1β-induced R4 reporter activity
  EC50: ≥ 30000 nM

## C[C@@H]1C[C@H]2[C@@H]3CCC4=CC(=O)C=C[C@]4(C)[C@@]3(F)[C@@H](O)C[C@]2(C)[C@@]1(O)C(=O)CO [Dexamethasone, dexamethasone]
R2 reporter; R2 reporter, glucocorticoid + IL-1β (1 ng/mL), 6 h
  EC50: 10.2 nM
R2 reporter; R2 reporter, glucocorticoid, naïve, 6 h
  EC50: 8.51 nM
R5 reporter; A549, 6 h, R5 reporter, glucocorticoid + IL-1β (1 ng/mL), 6 h
  EC50: 10 nM
R5 reporter; A549, 6 h, R5 reporter, glucocorticoid, naïve, 6 h
  EC50: 11.5 nM
R5 reporter; A549, R5 reporter, dexamethasone, Schild experiments (Fig. 7C), read-out: pEC50 (converted)
  EC50: 11.7 nM
R5 reporter; R5 reporter, glucocorticoid + IL-1β (1 ng/mL), % of 1 μM dexamethasone, 6 h
  EMax (% of 1 μM dexamethasone ± SE): 16.3% ± 1.8
R5 reporter; R5 reporter, glucocorticoid, naïve, expressed as % of 1 μM dexamethasone, 6 h
  EMax (% of 1 μM dexamethasone ± SE): 101% ± 2
R8 reporter [1]; Homo sapiens, dexamethasone alone
  EC50: 10.7 nM
R8 reporter [1]; Homo sapiens, dexamethasone in the presence of IL-1β
  EC50: 8.32 nM
